Results from patent US20060057156A1, “Materials and methods for inductions of immune tolerance” (priority 2002, published 2006).

The substances below were run on PBMC from EBV seropositive donors (assay: Suppression of proliferative and cytokine responses to mitogen, antigens and allergens). Settings: three EBV seropositive donors, FIG. 6.
Assay type: cell-based, human

Substance | effect on proliferative and gamma-IFN responses against recall antigen (PPD)
FLGIVLFIFGCLLVLGIWIY [P22] | inhibit proliferative responses
LFIFGCLLVLGIWIYLLEML [P23] | inhibit proliferative responses
LILLIIALYLQQNWWTLLVD [P31] | inhibit proliferative responses
LLLLALLFWLYIVMSDWTGG [P7] | inhibit proliferative responses
LLLMITLLLIALWNLHGQAL [P18] | inhibit proliferative responses
LLWLLLFLAILIWMYYHGQR [P35] | inhibit proliferative responses
PRGPPLSSSLGLALLLLLLA [P4] | inhibit proliferative responses

The substances below were run on PBMC from EBV seropositive donors (assay: not given). Settings: 20 seropositive donors; peptide 15 μg/ml.
Assay type: cell-based, human

Substance | percentage of EBV seropositive donors whose PBMC responded with IL-10 [%]
PRGPPLSSSLGLALLLLLLA [P4] | 80

Same assay, conditions: EBV seropositive donors; peptides at 15 μg/ml; ELISA five days after stimulation

Substance | IL-10 secretion by PBMC
FLGIVLFIFGCLLVLGIWIY [P22] | IL-10 inducing
ILIIFIFRRDLLCPLGALCI [P14] | shown to induce IL-10
LFIFGCLLVLGIWIYLLEML [P23] | IL-10 inducing
LILLIIALYLQQNWWTLLVD [P31] | IL-10 inducing
LLFWLYIVMSDWTGGALLVL [P8] | shown to induce IL-10
LLLLALLFWLYIVMSDWTGG [P7] | IL-10 inducing
LLLMITLLLIALWNLHGQAL [P18] | IL-10 inducing
LLWLLLFLAILIWMYYHGQR [P35] | IL-10 inducing
PRGPPLSSSLGLALLLLLLA [P4] | IL-10 inducing

Same assay, conditions: EBV seropositive donors; peptides at 15 μg/ml; ELISA five days after stimulation; listed as peptide 7

Substance | IL-10 secretion by PBMC
LLLLALLFWLYIVMSDWTGG [P7] | one of many effective Tr1 IL-10 inducers

Same assay, conditions: control peptides of FIG. 6, seropositive donors

Substance | gamma-IFN induction
HDPLPQDPDNTDDNGPQDPD [P56] | gamma-IFN inducing
QQNWWTLLVDLLWLLLFLAI [P33] | gamma-IFN inducing
TIWQLLAFFLAFFLDLILLY [P28] | gamma-IFN inducing

Same assay, conditions: regardless of EBV serological status

Substance | response pattern to control mitogen / recall antigen
concanavalin A [Con A, reference compound] | induced responses dominated by proliferation and γ-IFN production
